Columns and labels:
bone marrow HSC = assay: Competitive repopulation assay after multi-dose 5-FU; format: in vivo, mouse; settings: multi-dose YH250 with 5-FU
Source text: At the last round of 5-FU treatment from FIG. 25A, bone marrow cells from survived animals were isolated (CD45.2) and mixed with competitor cells (CD45.1/CD45.2 hybrid) and injected to CD45.1 mice for competitive repopulation assay. This is to assess whether YH250, by multiple uses in this experiment setting, will result in changes of HSC activity and lead to HSC exhaustion (FIG. 26A).

LSK150+41+48+ cells = assay: RNA sequencing of progenitor population from treated mice; format: in vivo, mouse; settings: 2 mg/kg vs DMSO, 16 hours
Experimental: (§1) DMSO or YH250 (2 mg/kg) were administrated to female C57/Black mice.

cord blood CD34+ cells = assay: Cord blood CD34+ cell culture, colony morphology at day 8; format: cell-based, human; settings: 4GF medium, day 8 in culture
Experimental: Cord blood CD34^+ cells were cultured in serum free medium with different growth factor combination and different concentrations of YH250. We tested three serum free mediums with either 4 growth factors (4GF, or SF6T: SCF 100 ng/ml; Flt3 100 ng/ml, IL-6 20 ng/ml, and TPO 20 ng/ml) or 6 growth factors (6GF, or SF6TG3: SCF 100 ng/ml; Flt3 100 ng/ml, IL-6 20 ng/ml, TPO 20 ng/ml, GCSF 10 ng/ml, and IL-3 10 ng/ml). YH250 was at 0.3 μM or 1 μM concentration, DMSO, the solvent for YH250, was used as control. Frozen cord blood CD34+ cells were plated into 96 wells with different medium and different growth factors and different compound concentrations. At day 8 in culture, pictures were taken to record the cell growth and colony morphology (FIG. 12A).

mouse bone marrow cells = assay: CFU-S12 assay (treated cells injected to lethally irradiated mice); format: in vivo; settings: cells treated in vitro, 12 days after injection
Source text: In CFU-S12 assay, cells treated with DMSO or YH250 were recovered from plate and injected to lethally irradiated mice (FIG. 8A), 12 days later, animals were euthanized to check spleen colony formation and spleen weight.

[1] = target: T1, interaction between β-catenin and p300 (Mus musculus, UniProt B2RWS6); assay: Co-immunoprecipitation (pull-down) in C2Cl2 myoblast cells; format: cell-based; settings: C2Cl2 cells treated 24 hours
T1 construct: endogenous in cells; host or cells: mouse myoblast C2C12 cells
Experimental: YH249 and YH250 were selected from the compounds described herein for further testing. Co-immunoprecipitation (CO-IP) was performed with mouse myoblast C2Cl2 cells. Cells were treated with DMSO (control), or YH249, or YH250 for 24 hours. Cell lyses were pulled down with anti-p300 or anti-CBP antibodies, run on gel and probed with anti-β-catenin antibody. […] A biotinylated version of YH249 (Bio-249) was prepared via the propargyl amide variant. Using a biotin with a linker and a terminal azide residue, we were able to couple the biotin to the YH249 core via a 3+2 cyclization reaction to provide Bio-249. Bio-249 was incubated with lysates from C2Cl2 myoblasts, either in the presence or absence of competitor YH249 for 4 h at 4° C. and then bound to streptavidin agarose beads. After extensive washing the bound proteins were eluted and run out on an […].

bone marrow HSPC = assay: Competitive repopulation assay after 8.5Gy radiation (HSPC exhaustion); format: in vivo
bone marrow cells = assay: Radiation induced apoptosis, cleaved PARP FACS; format: in vivo; settings: administered 18 hours before 5Gy radiation; 6 hours after radiation
Experimental: Since p300/-catenin antagonists such as YH250 up-regulate survivin gene expression, YH250 was tested for the ability to attenuate radiation induced cell apoptosis by detecting cleaved PARP (Poly ADP ribose polymerase-1) using anti-PARP antibody and FACS analysis (BD Bioscience, Cat#562253, anti-PARP clone F21-852). DMSO or YH250 were administrated 18 hours before 5Gy radiation. 6 hours after radiation, bone marrow cells were isolated and stained for cell surface markers (lineage markers, Sca-1, c-kit) and anti-PARP (FIG. 23A).

[2] = test system: LSK150+41−48− cells (LTR-HSC); assay: RNA sequencing of long-term repopulating HSC from treated mice; format: in vivo, mouse; settings: 2 mg/kg vs DMSO, 16 hours
Experimental: as §1

T1 sequence (B2RWS6 2-2412 limits assumed): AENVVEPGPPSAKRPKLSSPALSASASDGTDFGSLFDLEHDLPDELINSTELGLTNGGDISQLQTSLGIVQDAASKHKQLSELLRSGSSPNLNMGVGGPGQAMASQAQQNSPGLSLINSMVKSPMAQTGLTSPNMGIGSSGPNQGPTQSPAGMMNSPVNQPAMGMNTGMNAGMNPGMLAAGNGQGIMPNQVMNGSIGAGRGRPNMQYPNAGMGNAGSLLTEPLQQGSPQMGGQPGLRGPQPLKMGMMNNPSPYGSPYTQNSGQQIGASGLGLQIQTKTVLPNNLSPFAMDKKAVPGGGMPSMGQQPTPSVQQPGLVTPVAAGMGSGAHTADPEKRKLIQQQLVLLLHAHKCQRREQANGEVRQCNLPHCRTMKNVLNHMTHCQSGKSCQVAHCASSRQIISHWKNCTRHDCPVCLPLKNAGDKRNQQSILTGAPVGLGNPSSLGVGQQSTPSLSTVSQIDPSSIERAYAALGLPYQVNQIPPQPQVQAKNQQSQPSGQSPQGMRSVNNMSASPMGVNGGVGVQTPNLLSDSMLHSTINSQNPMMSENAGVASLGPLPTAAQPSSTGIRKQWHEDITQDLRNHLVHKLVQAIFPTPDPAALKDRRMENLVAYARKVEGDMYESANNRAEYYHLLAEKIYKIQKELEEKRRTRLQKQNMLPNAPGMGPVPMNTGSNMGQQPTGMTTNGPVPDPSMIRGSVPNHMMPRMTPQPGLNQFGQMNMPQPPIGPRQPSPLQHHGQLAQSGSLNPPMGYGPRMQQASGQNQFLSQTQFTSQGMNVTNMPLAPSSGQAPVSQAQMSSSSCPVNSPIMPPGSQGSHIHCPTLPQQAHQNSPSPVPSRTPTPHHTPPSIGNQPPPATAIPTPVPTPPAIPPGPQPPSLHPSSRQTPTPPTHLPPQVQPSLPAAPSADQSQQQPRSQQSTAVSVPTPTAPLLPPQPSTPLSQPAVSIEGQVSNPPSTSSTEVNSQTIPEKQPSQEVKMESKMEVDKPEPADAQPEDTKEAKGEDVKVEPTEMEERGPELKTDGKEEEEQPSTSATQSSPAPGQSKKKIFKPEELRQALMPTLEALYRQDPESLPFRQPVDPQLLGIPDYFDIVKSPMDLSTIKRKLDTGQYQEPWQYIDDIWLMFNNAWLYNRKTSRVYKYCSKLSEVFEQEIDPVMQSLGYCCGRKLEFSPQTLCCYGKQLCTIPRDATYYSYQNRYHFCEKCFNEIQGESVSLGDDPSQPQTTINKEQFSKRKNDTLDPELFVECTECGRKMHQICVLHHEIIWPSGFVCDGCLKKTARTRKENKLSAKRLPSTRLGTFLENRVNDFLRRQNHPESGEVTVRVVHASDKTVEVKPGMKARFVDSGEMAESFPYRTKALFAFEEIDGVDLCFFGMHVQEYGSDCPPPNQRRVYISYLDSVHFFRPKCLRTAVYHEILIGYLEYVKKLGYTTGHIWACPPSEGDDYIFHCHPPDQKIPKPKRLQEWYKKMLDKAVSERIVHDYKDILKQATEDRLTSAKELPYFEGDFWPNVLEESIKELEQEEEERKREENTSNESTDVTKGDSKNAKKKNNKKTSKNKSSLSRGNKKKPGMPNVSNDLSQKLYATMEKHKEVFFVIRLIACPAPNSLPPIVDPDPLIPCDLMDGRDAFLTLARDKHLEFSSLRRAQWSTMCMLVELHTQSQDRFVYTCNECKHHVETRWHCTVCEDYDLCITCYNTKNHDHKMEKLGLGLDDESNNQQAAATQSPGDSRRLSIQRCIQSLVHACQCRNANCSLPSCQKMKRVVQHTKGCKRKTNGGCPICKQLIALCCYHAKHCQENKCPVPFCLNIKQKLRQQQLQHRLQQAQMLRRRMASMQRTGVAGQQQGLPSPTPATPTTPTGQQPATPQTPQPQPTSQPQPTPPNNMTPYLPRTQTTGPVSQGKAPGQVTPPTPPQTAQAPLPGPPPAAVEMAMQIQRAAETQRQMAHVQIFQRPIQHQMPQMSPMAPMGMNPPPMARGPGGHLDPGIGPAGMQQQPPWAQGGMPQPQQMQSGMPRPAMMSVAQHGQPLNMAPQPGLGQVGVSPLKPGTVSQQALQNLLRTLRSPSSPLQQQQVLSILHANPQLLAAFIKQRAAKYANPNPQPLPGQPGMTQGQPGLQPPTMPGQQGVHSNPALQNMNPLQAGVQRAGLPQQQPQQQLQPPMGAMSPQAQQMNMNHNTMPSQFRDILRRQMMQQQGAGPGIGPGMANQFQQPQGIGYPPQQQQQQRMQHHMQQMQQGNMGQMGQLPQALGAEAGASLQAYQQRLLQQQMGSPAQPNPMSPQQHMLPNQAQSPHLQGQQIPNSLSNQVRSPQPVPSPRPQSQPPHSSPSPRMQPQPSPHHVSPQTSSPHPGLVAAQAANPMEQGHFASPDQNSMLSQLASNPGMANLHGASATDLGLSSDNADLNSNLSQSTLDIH

COc1cccc(CNC(=O)N2C3CN(Cc4cc(Cl)cc(Cl)c4N(C)C)C(=O)[C@H](Cc4ccc(O)cc4)N3C(=O)CN2C)c1OC (stereo partly drawn) [YH250]
lineage bias in short-term and long-term repopulation (bone marrow HSC): no lineage bias
Fold-Change Car1 (LSK150+41+48+ cells): −12.1 fold
Fold-Change Gm26377 (miRNA) (LSK150+41+48+ cells): −3.19 fold
Fold-Change Ighm (LSK150+41+48+ cells): 2.36 fold
Fold-Change Ighv11-2 (LSK150+41+48+ cells): 4.42 fold
Fold-Change Igkv19-93 (LSK150+41+48+ cells): 3.12 fold
Fold-Change Mid1 (LSK150+41+48+ cells): −2.8 fold
colony morphology (cord blood CD34+ cells): more close to “stem cell colony” morphology
spleen colonies (CFU-S12) (mouse bone marrow cells): larger colonies on spleen
spleen weight (CFU-S12) (mouse bone marrow cells): heavier spleen
β-catenin in the p300 pull down lane [1]: significantly decreased levels of β-catenin
engraftment level vs DMSO treated animals (bone marrow HSPC; bone marrow from 8.5Gy irradiated animals): similar
HSPC exhaustion (bone marrow HSPC; one dose 24 hours post lethal dose radiation): does not exhaust HSPC
apoptosis (cleaved PARP) in LSK, lineage-negt and lineage-posit population (bone marrow cells): significantly less apoptosis
Fold-Change A430005L14Rik [2]: 2.07 fold
Fold-Change Car1 [2]: 46.29 fold
Fold-Change Casp6 [2]: 2.56 fold
Fold-Change Cd52 [2]: 3.09 fold
Fold-Change Cd53 [2]: 2.79 fold
Fold-Change Cd69 [2]: 2.44 fold
Fold-Change Cd74 [2]: 2.30 fold
Fold-Change Cd79a [2]: 5.49 fold
Fold-Change Cdc123 [2]: 2.13 fold
Fold-Change Dtx3 [2]: −2.12 fold
Fold-Change Gm21897 [2]: −2.18 fold
Fold-Change Gm26377 (miRNA) [2]: −58.02 fold
Fold-Change Ighm [2]: 6.14 fold
Fold-Change Ighv11-2 [2]: 8.18 fold
Fold-Change Igj [2]: 3.36 fold
Fold-Change Igkc [2]: 3.93 fold
Fold-Change Igkv14-126 [2]: 8.00 fold
Fold-Change Igkv19-93 [2]: 21.16 fold
Fold-Change Iglc2 [2]: 4.58 fold
Fold-Change Il2rg [2]: 2.03 fold
Fold-Change Kcnq1ot1 (antisense) [2]: −2.37 fold
Fold-Change Ldlr [2]: −3.57 fold
Fold-Change Ly6c2 [2]: 7.17 fold
Fold-Change Mid1 [2]: −3.98 fold
Fold-Change Mrpl30 [2]: 2.07 fold
Fold-Change Ndufaf7 [2]: 3.45 fold
Fold-Change Pias1 [2]: 2.02 fold
Fold-Change Psmf1 [2]: 2.48 fold
Fold-Change RP23-99K18.3 (lincRNA) [2]: −2.28 fold
Fold-Change Tgtp1 [2]: 2.85 fold
Fold-Change Tmed4 [2]: 2.06 fold

From patent US20190125753A1, “COMPOUNDS AND METHODS FOR INCREASING HEMATOPOIESIS” (University of Southern California, priority 2016, published 2019)
